PMC5504357, “Antifungal Potential of Copper(II), Manganese(II) and Silver(I) 1,10-Phenanthroline Chelates Against Multidrug-Resistant Fungal Species Forming the Candida haemulonii Complex: Impact on the Planktonic and Biofilm Lifestyles” (Frontiers in Microbiology, 2017)
Like-named read-outs stand apart in the source and are kept apart here.

Assays:
C. haemulonii complex = assay: Planktonic growth, overall across all nine isolates; format: cell-based, Candida haemulonii complex; conditions: geometric mean across all nine strains; for MIC: in μM, read-out: Overall GM-MIC
Description: (§1) Three clinical isolates of each species that form the C. haemulonii complex were used in this study: C. haemulonii (LIPCh4 from finger nail, LIPCh7 from toe nail, and LIPCh12 from blood), C. duobushaemulonii (LIPCh1 from finger nail, LIPCh6 from toe nail, and LIPCh8 from blood) and C. haemulonii var. vulnera (LIPCh5 from toe nail, LIPCh9 from urine, and LIPCh11 from blood) (Ramos et al., [2015]). The fungal isolates were identified by the automatized system VITEK® 2 and then characterized by ITS1-5.8S-ITS2 gene sequencing (Ramos et al., [2015]). Fungal cells were cultured in Sabouraud-dextrose medium under constant agitation (130 rpm) for 48 h at 37°C. Human lung adenocarcinoma A549 cells were maintained in culture flasks containing DMEM medium supplemented with 10% fetal bovine serum at 37°C in an atmosphere of 5% CO2.
(§2) Susceptibility profile assays were performed in accordance with the broth microdilution protocol described in the document M27-A3 published by the Clinical and Laboratory Standards Institutes (CLSI, [2008]). Samples of the test chelates were dissolved in DMSO (500 μL) and then serially diluted in a 96-well plate containing RPMI 1640 (Sigma-Aldrich, USA) to give the concentration range of 0.0625-32 mg/L. Aqueous solutions of the metal-free phen ligand and the simple metal salts, MnCl2, CuCl2, and AgNO3, were also screened over the same concentration range. Caspofungin (Sigma-Aldrich) was used as a classical antifungal agent able to block the growth of all clinical isolates of C. haemulonii species as previously reported by our research group (Ramos et al., [2015]). Water dilutions containing DMSO concentrations corresponding to those used to prepare the drug solutions were assessed in parallel. Untreated and compound-treated fungal cells were incubated at 37°C for 48 h and the minimal inhibitory concentration (MIC) was established as the lowest compound concentration where no cellular growth could be detected by visual inspection in accordance to the CLSI recommendation. The geometric mean of the MIC values (GM-MIC) of each compound against all the fungal isolates was calculated using the software, Microsoft Office Excel 2013.

Candida duobushaemulonii [1] = assay: Biofilm-growing cells, XTT assay, bMIC; format: cell-based; conditions: for GM-bMIC: geometric mean, C. duobushaemulonii isolates; for bMIC: mature biofilm, 48 h, 50% inhibition of metabolic activity
Procedure: (§3) The effect of the compounds on biofilm-growing cells was determined using the previously described microtiter-based technique (Ramage et al., [2001]). The fungi (10^6 yeast cells) were incubated for 48 h at 37°C in 96-well polystyrene microtiter plates (Corning®, Corning Incorporated, USA) containing Sabouraud-dextrose broth to accommodate biofilm formation. Following biofilm formation, the culture medium was aspirated and non-adherent cells removed by thoroughly washing the wells three times with sterile PBS (0.15 M NaCl, 0.01 M phosphate buffer, pH 7.2). Afterwards, the compounds, at the same concentrations used in the planktonic assays, were added to the wells, and the plates were incubated for further 48 h at 37°C. The metabolic activity was then evaluated using a colorimetric assay that measures the metabolic reduction of 2,3-bis (2-methoxy-4-nitro-5-sulfophenyl)-5-[(phenylamino) carbonyl]-2H-tetrazolium hydroxide (XTT; Sigma-Aldrich) to a water-soluble, brown formazan product (Peeters et al., [2008]). The biofilm MIC (bMIC) for each compound was established as the minimal concentration capable of inhibiting 50% of metabolic activity when compared to compound-free wells (Ziccardi et al., [2015]).

Candida haemulonii [2] = assay: Biofilm-growing cells, XTT assay, bMIC; format: cell-based; conditions: for GM-bMIC: geometric mean, C. haemulonii isolates, values marked * do not include LIP Ch4 (>512); for bMIC: mature biofilm, 48 h, 50% inhibition of metabolic activity
Procedure: as §3

[3] = tested on: Candida haemulonii var. vulnera; assay: Biofilm-growing cells, XTT assay, bMIC; format: cell-based; conditions: for GM-bMIC: geometric mean, C. haemulonii var. vulnera isolates; for bMIC: mature biofilm, 48 h, 50% inhibition of metabolic activity
Procedure: as §3

A549 cells = assay: Mammalian cell toxicity (MTT assay) and selectivity index; format: cell-based, Human
Description: as §1
The cytotoxicity was evaluated using the MTT [3-(4,5-dimethylthiazol-2-yl)-2,5-diphenyl tetrazolium bromide] (Sigma-Aldrich) assay (Mosmann, [1983]). A549 cells (10^4) were seeded into tissue culture plates (TPP, Switzerland) and cultured for 24 h at 37°C in a 5% CO2 in order to obtain cellular confluence. The wells were then washed twice with DMEM to remove non-adherent cells and the test compounds were added (in concentrations ranging from 0.0313 to 512 μg/mL) to plates containing DMEM, followed by a 48 h incubation period under the same conditions mentioned above. The cellular viability was evaluated by adding MTT to each well and incubating the plates in the dark for 3 h, allowing the viable cells containing active mitochondrial dehydrogenase enzymes to metabolize MTT-tetrazolium salt into purple formazan. The formazan crystals were then dissolved in DMSO (100 μL) and the absorbance (450 nm) measured using a Thermomax Molecular Device microplate reader. The concentration capable of reducing cellular viability by 50% (CC50) was calculated, and the selectivity index (SI) determined using the following equation: A549 CC50/C. haemulonii complex GM-MIC.

Candida duobushaemulonii [4] = assay: Planktonic growth, broth microdilution (CLSI M27-A3), MIC; format: cell-based; conditions: for GM-MIC: geometric mean of three C. duobushaemulonii isolates; for MIC: planktonic, 48 h, 37°C
Description: as §1, §2

Candida haemulonii [5] = assay: as above; format: cell-based; conditions: for GM-MIC: geometric mean of three C. haemulonii isolates; for MIC: planktonic, 48 h, 37°C
Description: as §1, §2

[6] = tested on: Candida haemulonii var. vulnera; assay: as above; format: cell-based; conditions: for GM-MIC: geometric mean of three C. haemulonii var. vulnera isolates; for MIC: planktonic, 48 h, 37°C
Description: as §1, §2

[7] = tested on: Candida haemulonii complex; assay: Biofilm-growing cells, overall across isolates; format: cell-based; conditions: geometric mean across strains, values marked * do not include LIP Ch4 (>512)
Procedure: as §3

SMILES | Overall GM-MIC (C. haemulonii complex) [mg/L] | MIC (C. haemulonii complex) [µM] | GM-bMIC (Candida duobushaemulonii [1]) [mg/L] | bMIC (Candida duobushaemulonii [1]; isolate LIP Ch1) [mg/L] | bMIC (Candida duobushaemulonii [1]; isolate LIP Ch6) [mg/L] | bMIC (Candida duobushaemulonii [1]; isolate LIP Ch8) [mg/L] | GM-bMIC (Candida haemulonii [2]) | bMIC (Candida haemulonii [2]; isolate LIP Ch4) [mg/L] | bMIC (Candida haemulonii [2]; isolate LIP Ch7) [mg/L] | bMIC (Candida haemulonii [2]; isolate LIP Ch14) [mg/L] | GM-bMIC [3] [mg/L] | bMIC ([3]; isolate LIP Ch5) [mg/L] | bMIC ([3]; isolate LIP Ch9) [mg/L] | bMIC ([3]; isolate LIP Ch13) [mg/L] | GM-MIC (Candida duobushaemulonii [4]) [mg/L] | MIC (Candida duobushaemulonii [4]; isolate LIP Ch1) [mg/L] | MIC (Candida duobushaemulonii [4]; isolate LIP Ch6) [mg/L] | MIC (Candida duobushaemulonii [4]; isolate LIP Ch8) [mg/L] | GM-MIC (Candida haemulonii [5]) [mg/L] | MIC (Candida haemulonii [5]; isolate LIP Ch4) [mg/L] | further results
O.O.O=C([O-])c1ccccc1C(=O)[O-].[Mn+2].c1cnc2c(c1)ccc1cccnc12 [compound 8, [Mn(ph)(phen)(H2O)2]] | 4.67 | 10.71 | 10.08 | 16 | 8 | 8 | 8^* mg/L | >512 | 4 | 16 | 16 | 32 | 16 | 8 | 5.04 | 8 | 4 | 4 | 5.04 | 8 | A549 (CC50) (A549 cells): 234.51 mg/L; MIC (Candida haemulonii [5]; isolate LIP Ch7): 4 mg/L; MIC (Candida haemulonii [5]; isolate LIP Ch12): 4 mg/L; GM-MIC [6]: 4 mg/L; MIC ([6]; isolate LIP Ch5): 4 mg/L; MIC ([6]; isolate LIP Ch9): 4 mg/L; MIC ([6]; isolate LIP Ch11): 4 mg/L; Overall GM-bMIC ([7]; in μM): 25.98 µM; Overall GM-bMIC [7]: 11.31 mg/L
O.O.O.O.O.O=C([O-])c1ccccc1C(=O)[O-].[Mn+2].c1cnc2c(c1)ccc1cccnc12.c1cnc2c(c1)ccc1cccnc12 [compound 9, [Mn(ph)(phen)2(H2O)].4H2O] | 2 | 2.98 | 5.04 | 16 | 4 | 2 | 25.40 mg/L | 512 | 2 | 16 | 6.35 | 16 | 4 | 4 | 2 | 2 | 2 | 2 | 2 | 2 | A549 (CC50) (A549 cells): 259.34 mg/L; MIC (Candida haemulonii [5]; isolate LIP Ch7): 2 mg/L; MIC (Candida haemulonii [5]; isolate LIP Ch12): 2 mg/L; GM-MIC [6]: 2 mg/L; MIC ([6]; isolate LIP Ch5): 2 mg/L; MIC ([6]; isolate LIP Ch9): 2 mg/L; MIC ([6]; isolate LIP Ch11): 2 mg/L; Overall GM-bMIC ([7]; in μM): 13.93 µM; Overall GM-bMIC [7]: 9.33 mg/L
O.O.O.O.O=C([O-])c1cccc(C(=O)[O-])c1.O=C([O-])c1cccc(C(=O)[O-])c1.[Mn+2].[Mn+2].c1cnc2c(c1)ccc1cccnc12.c1cnc2c(c1)ccc1cccnc12.c1cnc2c(c1)ccc1cccnc12 [compound 10, [Mn2(isoph)2(phen)3].4H2O] | 5.44 | 5.15 | 16 | 16 | 16 | 16 | 16^* mg/L | >512 | 8 | 32 | 12.70 | 32 | 8 | 8 | 6.35 | 8 | 8 | 4 | 6.35 | 8 | A549 (CC50) (A549 cells; MTT, 48 h incubation): 255.87 mg/L; MIC (Candida haemulonii [5]; isolate LIP Ch7): 8 mg/L; MIC (Candida haemulonii [5]; isolate LIP Ch12): 4 mg/L; GM-MIC [6]: 4 mg/L; MIC ([6]; isolate LIP Ch5): 4 mg/L; MIC ([6]; isolate LIP Ch9): 4 mg/L; MIC ([6]; isolate LIP Ch11): 4 mg/L; Overall GM-bMIC ([7]; in μM): 13.96 µM; Overall GM-bMIC [7]: 14.67 mg/L
O.O.O.O.O.O.O.O.O.O.O.O.O.O.O.O.O=C([O-])c1cccc(C(=O)[O-])c1.O=C([O-])c1cccc(C(=O)[O-])c1.[Mn+2].[Mn+2].c1cnc2c(c1)ccc1cccnc12.c1cnc2c(c1)ccc1cccnc12.c1cnc2c(c1)ccc1cccnc12.c1cnc2c(c1)ccc1cccnc12.c1cnc2c(c1)ccc1cccnc12 [compound 11, {[Mn(phen)2(H2O)2]}2(isoph)2(phen).12H2O] | 2.52 | 1.54 | 6.35 | 8 | 8 | 4 | 16^* mg/L | >512 | 8 | 32 | 8 | 16 | 4 | 8 | 2.52 | 2 | 4 | 2 | 2.52 | 4 | A549 (CC50) (A549 cells; MTT, 48 h incubation): 251.76 mg/L; MIC (Candida haemulonii [5]; isolate LIP Ch7): 2 mg/L; MIC (Candida haemulonii [5]; isolate LIP Ch12): 2 mg/L; GM-MIC [6]: 2.52 mg/L; MIC ([6]; isolate LIP Ch5): 4 mg/L; MIC ([6]; isolate LIP Ch9): 2 mg/L; MIC ([6]; isolate LIP Ch11): 2 mg/L; Overall GM-bMIC [7]: 8.72 mg/L
O.O.O.O.O.O=C([O-])c1ccc(C(=O)[O-])cc1.[Mn+2].c1cnc2c(c1)ccc1cccnc12.c1cnc2c(c1)ccc1cccnc12 [compound 12, [Mn(tereph)(phen)2].5H2O] | 4 | 5.96 | 16 | 32 | 8 | 16 | 16^* mg/L | >512 | 16 | 16 | 5.04 | 2 | 4 | 16 | 4 | 4 | 4 | 4 | 4 | 4 | A549 (CC50) (A549 cells; MTT, 48 h incubation): 251.94 mg/L; MIC (Candida haemulonii [5]; isolate LIP Ch7): 4 mg/L; MIC (Candida haemulonii [5]; isolate LIP Ch12): 4 mg/L; GM-MIC [6]: 4 mg/L; MIC ([6]; isolate LIP Ch5): 4 mg/L; MIC ([6]; isolate LIP Ch9): 4 mg/L; MIC ([6]; isolate LIP Ch11): 4 mg/L; Overall GM-bMIC ([7]; in μM): 15.48 µM; Overall GM-bMIC [7]: 10.37 mg/L
